The subject of one experiment is FGFR1. On the set-up: method as in Reinecke et al. (2023). The following applies: FGFR1, 5 cell line mix lysate, Kinobeads ε, ref Reinecke et al. (2023), cited from earlier work.
For another experiment, the target named is EGFR. On the set-up: method as in Reinecke et al. (2023). To be noted: 5 cell line mix lysate, Kinobeads ε, ref Reinecke et al. (2023), cited from earlier work.
For a further experiment, the system named is PHKA2. Set-up: method as in Reinecke et al. (2023). The following applies: PHKA2, 5 cell line mix lysate, Kinobeads ε, ref Reinecke et al. (2023), cited from earlier work.
A further experiment deals with PTK2B. Set-up: method as in Reinecke et al. (2023). The following applies: 5 cell line mix lysate, Kinobeads ε, ref Reinecke et al. (2023), cited from earlier work.
A further experiment addresses LCK. On the set-up: method as in Reinecke et al. (2023). The following applies: 5 cell line mix lysate, Kinobeads ε, ref Reinecke et al. (2023), cited from earlier work.
For the next experiment, the system named is TBK1. The following applies: TBK1, 5 cell line mix lysate, Kinobeads ε, ref Reinecke et al. (2023), cited from earlier work.
Another experiment deals with FRK. Set-up: method as in Reinecke et al. (2023). The following applies: 5 cell line mix lysate, Kinobeads ε, ref Reinecke et al. (2023), cited from earlier work.
The target in the next experiment is FES. On the set-up: method as in Reinecke et al. (2023). To be noted: 5 cell line mix lysate, Kinobeads ε, ref Reinecke et al. (2023), cited from earlier work.
The target of a further experiment is PIK3C2A (Homo sapiens, UniProt O00443). The experiment can be described thus: biochemical. As to the method: (§1) This was followed by incubation with Kinobeads ε (17.5 µl of settled beads) for 30 min at 4 °C to enrich kinases. […] Enriched proteins were reduced with 50 mM DTT in 8 M urea, 40 mM Tris-HCl, pH 7.4 for 30 min at room temperature, and alkylated with 55 mM chloroacetamide. After reducing the urea concentration to 1–2 M, proteins were digested with trypsin at 37 °C for 16 h. Subsequently, eluted peptides were desalted using SepPak tC18 µElution plates (Waters), freeze-dried by vacuum centrifugation, and stored at −20 °C.
(§2) For LC-MS/MS, dried peptides were reconstituted in 0.1% formic acid and analyzed on a Dionex Ultimate3000 nano HPLC (Thermo Scientific) coupled to an Orbitrap Fusion Tribrid mass spectrometer (Thermo Scientific), which was run in data-dependent mode. […]
(§3) Oxidized methionine and N-terminal acetylation were set as variable modification, and cysteine carbamidomethylation was set as fixed modification. Label-free quantification (LFQ) and match-between-runs were enabled. […]
(§4) Proteins were filtered by potential contaminants, reversed hits and proteins identified only by site. Residual binding of proteins was calculated from LFQ intensities as the ratio between drug doses and vehicle. […] Only kinases quantified with at least 4 unique peptides in the vehicle experiment were considered. […]

A further experiment has as its system MAP3K5. On the set-up: method as in Klaeger et al. (2017). To be noted: lysate 4 cell line mix (Colo205, K-562, MV-4-11, and SK-N-BE(2)), Kinobeads y, ref Klaeger et al. (2017); cited from earlier work.
In the next experiment the test system is MAP2K5. On the set-up: method as in Klaeger et al. (2017). The following applies: lysate 4 cell line mix (Colo205, K-562, MV-4-11, and SK-N-BE(2)), Kinobeads y, ref Klaeger et al. (2017); cited from earlier work.
In a further experiment the test system is TGFBR2. Set-up: method as in Klaeger et al. (2017). To be noted: lysate 4 cell line mix (Colo205, K-562, MV-4-11, and SK-N-BE(2)), Kinobeads y, ref Klaeger et al. (2017); cited from earlier work.
Experiment [1] addresses several subunits of CSNK2. The experiment can be described thus: Kinobeads competition pulldown in AsPC-1 lysate. The format is binding, human. The following applies: read-out: KDapp. As to the method: as §1, §2, §3, §4

SMILES strings stand for the structures.

Chain of PIK3C2A (O00443 whole entry, the tested form may be a part): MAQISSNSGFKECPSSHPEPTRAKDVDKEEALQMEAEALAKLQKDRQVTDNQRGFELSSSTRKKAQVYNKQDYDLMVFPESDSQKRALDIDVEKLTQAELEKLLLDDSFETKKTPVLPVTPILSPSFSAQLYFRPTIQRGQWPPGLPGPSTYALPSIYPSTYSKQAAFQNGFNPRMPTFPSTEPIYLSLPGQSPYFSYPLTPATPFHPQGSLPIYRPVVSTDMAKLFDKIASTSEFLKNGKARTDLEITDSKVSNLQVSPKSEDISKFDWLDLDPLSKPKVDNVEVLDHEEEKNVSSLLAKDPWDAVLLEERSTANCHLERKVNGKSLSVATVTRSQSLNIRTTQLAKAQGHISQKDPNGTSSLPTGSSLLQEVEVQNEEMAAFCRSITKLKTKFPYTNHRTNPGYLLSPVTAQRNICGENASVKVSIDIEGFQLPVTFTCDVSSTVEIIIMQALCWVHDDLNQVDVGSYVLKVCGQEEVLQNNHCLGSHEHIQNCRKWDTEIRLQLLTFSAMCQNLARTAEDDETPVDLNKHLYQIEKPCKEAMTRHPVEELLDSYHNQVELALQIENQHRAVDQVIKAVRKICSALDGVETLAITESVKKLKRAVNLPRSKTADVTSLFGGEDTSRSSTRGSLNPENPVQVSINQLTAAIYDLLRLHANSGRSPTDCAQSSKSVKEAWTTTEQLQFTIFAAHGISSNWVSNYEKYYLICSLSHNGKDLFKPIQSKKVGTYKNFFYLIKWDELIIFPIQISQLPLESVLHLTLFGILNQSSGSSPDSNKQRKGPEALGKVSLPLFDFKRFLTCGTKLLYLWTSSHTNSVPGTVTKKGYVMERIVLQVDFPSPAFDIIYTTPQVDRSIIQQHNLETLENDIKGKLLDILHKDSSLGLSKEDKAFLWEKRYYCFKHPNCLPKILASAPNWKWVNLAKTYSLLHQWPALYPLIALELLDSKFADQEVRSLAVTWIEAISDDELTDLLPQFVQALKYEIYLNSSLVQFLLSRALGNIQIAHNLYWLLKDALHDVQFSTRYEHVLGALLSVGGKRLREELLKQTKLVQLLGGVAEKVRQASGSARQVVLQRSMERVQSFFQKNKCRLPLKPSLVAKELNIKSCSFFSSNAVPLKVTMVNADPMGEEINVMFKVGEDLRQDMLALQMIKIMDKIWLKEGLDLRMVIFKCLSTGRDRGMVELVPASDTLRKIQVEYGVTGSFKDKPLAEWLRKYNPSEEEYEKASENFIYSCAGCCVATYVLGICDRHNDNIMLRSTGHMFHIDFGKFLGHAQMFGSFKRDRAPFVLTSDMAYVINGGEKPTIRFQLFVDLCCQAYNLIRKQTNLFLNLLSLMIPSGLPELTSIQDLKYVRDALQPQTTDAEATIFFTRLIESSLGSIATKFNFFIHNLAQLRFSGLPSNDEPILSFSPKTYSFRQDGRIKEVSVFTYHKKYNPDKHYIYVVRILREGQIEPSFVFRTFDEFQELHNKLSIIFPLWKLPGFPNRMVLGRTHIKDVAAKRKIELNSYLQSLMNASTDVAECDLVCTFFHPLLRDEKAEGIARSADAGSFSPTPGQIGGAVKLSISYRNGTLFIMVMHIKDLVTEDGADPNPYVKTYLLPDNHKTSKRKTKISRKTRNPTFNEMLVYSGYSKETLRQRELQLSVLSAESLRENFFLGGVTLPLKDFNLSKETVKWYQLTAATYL

Broadly, the EC50 is the midpoint of the concentration-response curve. With `COc1cc(N2CCC(N3CCN(C)CC3)CC2)ccc1Nc1ncc(Cl)c(Nc2ccccc2P(C)(C)=O)n1` [Brigatinib], the concentration for a half-maximal effect (EC50) in the experiment on FGFR1 is 419 nM; with EGFR it was 184 nM; in the experiment on PHKA2 it was 19.7 nM; in the experiment with PTK2B, 12.4 nM; in the experiment on LCK, 2190 nM; in the experiment with TBK1 it was 1020 nM. For the same molecule, the figures for the EC50 in the experiment on FRK and with FES were 156 nM and 170 nM, respectively. In addition, the pKDapp is listed as 6.51 on FGFR1; 6.84 on EGFR; 7.71 on PHKA2; 8.29 on PTK2B; 6.02 at LCK; 6.18 on TBK1. Further, the figures for the pKDapp at FRK and at FES were 7.28 and 7.20, respectively. Moreover, the Kd on FGFR1 (read-out: KDapp) was 308 nM; on EGFR (read-out: KDapp) it was 146 nM; on PHKA2 (read-out: KDapp) it was 19.7 nM; at PTK2B (read-out: KDapp) it was 5.14 nM; on LCK (read-out: KDapp), 963 nM; at TBK1 (read-out: KDapp), 655 nM. Besides, the figures for the Kd on FRK (read-out: KDapp) and on FES (read-out: KDapp) were 53 nM and 63 nM, respectively.

With `C[C@@H]1COCCN1c1cc(-c2ccnn2C)c2ccnc(-c3ccn[nH]3)c2n1` [Elimusertib], the midpoint of the response at PIK3C2A, the EC50, lay at 936 nM. The molecule also registered a Kd on PIK3C2A (KDapp, AsPC-1 lysate) of 426 nM.

Turning to `C[C@]12O[C@H](C[C@]1(O)CO)n1c3ccccc3c3c4c(c5c6ccccc6n2c5c31)CNC4=O` [Lestaurtinib], the EC50 in the experiment with MAP3K5 is 788 nM; in the experiment with MAP2K5, 2050 nM; with TGFBR2, […].

Consider `Nc1nn2cc(F)cnc2c1C(=O)Nc1cncc(F)c1N1CCC(C(=O)N2CCN(C3COC3)CC2)CC1` [Gartisertib], for which the Kd in experiment [1] lay within 10 to 20 nM.

Source of the values: publication PMC11876601 (Molecular Systems Biology, 2025).
